These results are taken from patent US11117871B2, “Crystalline forms of GSK1278863, preparation method and pharmaceutical use thereof” (GlaxoSmithKline Intellectual Property (No.2) Limited, priority 2017, dated 2021).

Common to all, as to type: physicochemical
Series [1] is described as follows: Hygroscopicity by dynamic vapor sorption (DVS). The note with it: for Hygroscopicity (in words): 25° C./80% RH; for Weight gain under 80% Relative Humidity: DVS, 25° C., 80% RH. The procedure:
Dynamic vapor sorption (DVS) was applied to test hygroscopicity of Form CS1, Form CS9 and the prior art solid with about 10 mg of samples under 25 °C. The DVS plots of Form CS1, Form CS9 and the prior art solid are substantially as depicted in FIG. 10, FIG. 11 and FIG. 12.

Series [2] is described as follows: Physical stability of drug substance on storage (XRPD before/after). The settings on record: for Solid form after storage: 3 months, XRPD; for Time for which crystalline form of drug substance doesn't change on storage: 40° C./75% RH and 60° C./75% RH. The procedure:
Form CS1 was stored under different conditions of 25° C./60% RH, 40° C./75% RH and 60° C./75% RH. The XRPD pattern overlay before and after being stored is substantially as depicted in FIG. 13, FIG. 14 and FIG. 15.
Form CS9 was stored under different conditions of 25° C./60% RH, 40° C./75% RH and 60° C./75% RH. The XRPD pattern overlay before and after being stored is substantially as depicted in FIG. 16, FIG. 17 and FIG. 18.

A short description of series [3]: Kinetic solubility in SGF, FeSSIF, FaSSIF and pure water (HPLC). The settings on record: for Solubility (in words): SGF, FeSSIF, FaSSIF and pure water. The source says: Solubility test method according to the Chinese Pharmacopoeia was used and different pHs of different organs in human body were considered. According to the above two references, a solvent media set with four pH values range from 1.2 to 7.5 were designed in the present disclosure. Specifically: SGF (Simulated gastric fluids, pH=1.8), FeSSIF (Fed state simulated intestinal fluids, pH=5.0), FaSSIF (Fasted state simulated intestinal fluids, pH=6.5), and pure water were used.
Form CS1 and Form CS9 of the present disclosure were suspended into SGF, FeSSIF, FaSSIF and H2O to obtain saturated solutions. The solutions were sampled at fixed time points. Concentrations of the saturated solutions were measured by HPLC to measure the kinetic solubility of Form CS1 and Form CS9.

Series [4] in a line: Flowability by compressibility index (USP 1174). The settings on record: for Bulk density: 5 mL measuring cylinder, before tapping; for Tapped density: 500 taps; for Compressibility index: (Tapped Density−Bulk Density)/Tapped Density×100%; for Flowability: scale of USP 1174 by compressibility index. The procedure: According to the United States Pharmacopeia (USP) 1174, flowability of Form CS1 and Form CS9 of the present disclosure were evaluated by the compressibility index. The bulk density, tapped density of Form CS1 and Form CS9 were tested, and compressibility index was calculated.
1. Test Method • Samples: Form CS1 and Form CS9 • Instrument: Tap density tester • Utensil: 5 mL measuring cylinder • Number of tapping: 500 times • Bulk density=m/vQ (Mass/volume before tapping) • Tapped density=m/vt (Mass/volume after tapping)
2. Calculation Formula: Compressibility Index (%)=(Tapped Density−Bulk Density)/Tapped Density×100%

Series [5] is described as follows: In vitro dissolution of tablets (Chinese Pharmacopoeia 2015 <0931>, paddle). The note with it: tablet, pH=6.8 phosphate buffer + 1% SDS, 37° C., 75 rpm. The procedure: (§1) Form CS1 or Form CS9 of GSK1278863, microcrystalline cellulose, croscarmellose sodium and magnesium stearate were weighed according to formulation in Table 14 and blended for 2 minutes. The tablets were prepared using a manual tablet press at 5 KN±1 KN pressure with a φ7 mm round tooling. The tablets tablet weight is 100 mg±1 mg. The obtained tablets were packed in 35 cc HDPE bottles (one tablet per bottle) with 1 g desiccant. The bottles were sealed with a sealer.
In vitro dissolution test was performed on obtained tablets and dissolution method according to Chinese Pharmacopoeia 2015<0931> was used. The conditions are as follows:
Medium: pH=6.8 phosphate buffer solution+1% sodium dodecyl sulfate aqueous solution

Series [6] in a line: Stability of crystalline form in drug products (tablets). The settings on record: for Crystalline form before and after formulation process (in words): blending and tableting at 5 KN±1 KN; for Crystalline form of drug substance in the drug products after storage (in words): tablets, 40° C., 1 month. The procedure: as §1
The above obtained tablets were stored under 40° C./[…] condition for 1 month. […] The results are shown in Table 16, which indicate that Form CS1 and Form CS9 have good stability in the drug products.

Values after ≈ are worked out from the molar mass of the structure shown.

Turning to `O=C(O)CNC(=O)C1C(=O)N(C2CCCCC2)C(=O)N(C2CCCCC2)C1=O` [The prior art solid, reference compound], in series [1], the “Hygroscopicity (in words)” value was “higher hygroscopicity” and the “Weight gain under 80% Relative Humidity” value came to 1.14%. In series [1] (listed as prior art solid), the “Weight gain under 80% Relative Humidity” value was determined as 1.14%.
By solubility (kinetic) is commonly meant the concentration staying in solution when a stock, usually in DMSO, is diluted into the medium. Regarding `O=C(O)CNC(=O)C1C(=O)N(C2CCCCC2)C(=O)N(C2CCCCC2)C1=O` [Form CS1], the “Hygroscopicity (in words)” value in series [1] is given as “not hygroscopic”. Besides, the “Weight gain under 80% Relative Humidity” value in series [1] amounted to 0.53%. In addition, the “Solid form after storage” value in series [2] (25° C./60% RH), in series [2] (40° C./75% RH) and in series [2] (60° C./75% RH) was “Form CS1” throughout. Besides, the “Time for which crystalline form of drug substance doesn't change on storage” value in series [2] (25° C./60% RH) was “at least 3 months”. Moreover, the solubility (kinetic) at 1 h in series [3] (FaSSIF (fasted state simulated intestinal fluid), pH 6.5, fassif, thermodynamic from solid, FaSSIF (pH=6.5), 1 h) was 63 µg/mL (≈ 160 µM); in series [3] (FeSSIF (fed state simulated intestinal fluid), pH 5, fessif, thermodynamic from solid, FeSSIF (pH=5.0), 1 h) it was 190 µg/mL (≈ 483 µM); in series [3] (SGF (simulated gastric fluid), pH 1.8, simulated gastric fluid, thermodynamic from solid, SGF (pH=1.8), 1 h), 3.1 µg/mL (≈ 7.88 µM); in series [3] (pure water, water, thermodynamic from solid, H2O, 1 h), 14 µg/mL (≈ 35.6 µM). The kinetic solubility at 4 h in series [3] (FaSSIF (fasted state simulated intestinal fluid), pH 6.5, fassif, thermodynamic from solid, FaSSIF (pH=6.5), 4 h) is 50 µg/mL (≈ 127 µM); in series [3] (FeSSIF (fed state simulated intestinal fluid), pH 5, fessif, thermodynamic from solid, FeSSIF (pH=5.0), 4 h) it was 190 µg/mL (≈ 483 µM); in series [3] (SGF (simulated gastric fluid), pH 1.8, simulated gastric fluid, thermodynamic from solid, SGF (pH=1.8), 4 h), 3.1 µg/mL (≈ 7.88 µM); in series [3] (pure water, water, thermodynamic from solid, H2O, 4 h) it was 26 µg/mL (≈ 66.1 µM). In addition, the Kinetic solubility in series [3] (FaSSIF (pH=6.5), 24 h) is on record as 0.027 mg/mL; in series [3] (H2O, 24 h), 0.016 mg/mL; in series [3] (SGF (pH=1.8), 24 h) it was 0.0030 mg/mL. The kinetic solubility at 24 h in series [3] (FeSSIF (fed state simulated intestinal fluid), pH 5, fessif, thermodynamic from solid, FeSSIF (pH=5.0), 24 h) is 160 µg/mL (≈ 407 µM). Also, the “Solubility (in words)” value in series [3] is “good solubility”. This compound showed a Bulk density in series [4] of 0.15 g/mL. The compound also had a Tapped density in series [4] of 0.19 g/mL. The same compound came in with a Compressibility index in series [4] of 21%. For the same compound, the Flowability entry in series [4] was “Passable (21%-25%, passable flowability)”. Moreover, the Cumulative drug release in series [5] (5 min) worked out at 0.0%; in series [5] (10 min), 67.7%; in series [5] (20 min), 75.8%; in series [5] (30 min), 84.8%; in series [5] (45 min), 90.1%; in series [5] (60 min) it was 95.2%. In addition, the Cumulative drug release in series [5] (90 min) turned out to be 98.3%; in series [5] (120 min) it was 102.5%. In addition, in series [6], the “Crystalline form before and after formulation process (in words)” value is on record as “doesn't change”. Moreover, in series [6], the “Crystalline form of drug substance in the drug products after storage (in words)” value is recorded as “does not change”.
As for `O=C(O)CNC(=O)C1C(=O)N(C2CCCCC2)C(=O)N(C2CCCCC2)C1=O` [Form CS9], in series [1], the “Hygroscopicity (in words)” value is listed as “not hygroscopic”. For the same compound, the “Weight gain under 80% Relative Humidity” value in series [1] was 0.22%. The “Solid form after storage” value in series [2] (25° C./60% RH), in series [2] (40° C./75% RH) and in series [2] (60° C./75% RH) was “Form CS9” throughout. Besides, the “Time for which crystalline form of drug substance doesn't change on storage” value in series [2] (25° C./60% RH) was “at least 3 months”. Also, the Kinetic solubility is 0.058 mg/mL in series [3] (FaSSIF (pH=6.5), 1 h); 0.081 mg/mL in series [3] (FaSSIF (pH=6.5), 4 h); 0.081 mg/mL in series [3] (FaSSIF (pH=6.5), 24 h); 0.15 mg/mL in series [3] (FeSSIF (pH=5.0), 1 h); 0.17 mg/mL in series [3] (FeSSIF (pH=5.0), 4 h); 0.14 mg/mL in series [3] (FeSSIF (pH=5.0), 24 h). The Kinetic solubility in series [3] (H2O, 1 h) amounted to 0.020 mg/mL; in series [3] (H2O, 4 h) it was 0.038 mg/mL; in series [3] (H2O, 24 h), 0.060 mg/mL; in series [3] (SGF (pH=1.8), 1 h), 0.0039 mg/mL; in series [3] (SGF (pH=1.8), 4 h), 0.0042 mg/mL; in series [3] (SGF (pH=1.8), 24 h) it was 0.0093 mg/mL. In series [3], the “Solubility (in words)” value is recorded as “good solubility”. Also, the Bulk density in series [4] came to 0.11 g/mL. Moreover, the Tapped density in series [4] was 0.14 g/mL. The Compressibility index in series [4] amounted to 21%. Besides, the Flowability result in series [4] was “Passable (21%-25%, passable flowability)”. Also, in series [6], the “Crystalline form before and after formulation process (in words)” value is reported as “doesn't change”. Also, the “Crystalline form of drug substance in the drug products after storage (in words)” value in series [6] is recorded as “does not change”.
